# Measurements reported in PubChem BioAssay (NCI).
# Where “and” joins values, the source holds several entries; their conditions need not be identical. Equal values may be shown once.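 Values below derive from 48-hour exposures of cells grown in 96-well plates, with endpoints linearly interpolated between the two concentrations bracketing the appropriate inhibition level. Abbreviation: GI50, concentration required for 50% inhibition of growth. TGI is the concentration that stops growth completely.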
# Legend:
# Experiment in all cases: DTP human tumour cell line panel, 48 h
# ACHN renal = tested on: ACHN renal
# SNB-19 CNS = tested on: SNB-19 CNS
# EKVX NSCLC = tested on: EKVX NSCLC
# HOP-62 NSCLC = tested on: HOP-62 NSCLC
# HL-60(TB) leukemia = tested on: HL-60(TB) leukemia
# A549 NSCLC = tested on: A549 NSCLC
# SK-MEL-2 melanoma = tested on: SK-MEL-2 melanoma
# NCI-H522 lung = tested on: NCI-H522 lung
# T-47D breast = tested on: T-47D breast
# HT29 colon = tested on: HT29 colon
Structure (SMILES),TGI (ACHN renal),TGI (SNB-19 CNS),TGI (EKVX NSCLC),TGI (HOP-62 NSCLC),TGI (HL-60(TB) leukemia),TGI (A549 NSCLC),TGI (SK-MEL-2 melanoma),TGI (NCI-H522 lung),TGI (T-47D breast),TGI (HT29 colon),GI50 (ACHN renal),GI50 (SNB-19 CNS),GI50 (EKVX NSCLC),GI50 (HOP-62 NSCLC),GI50 (HL-60(TB) leukemia),GI50 (A549 NSCLC),GI50 (SK-MEL-2 melanoma),GI50 (NCI-H522 lung),GI50 (T-47D breast),GI50 (HT29 colon)
CC1=NN(c2ccc(S(=O)(=O)O)cc2)C(=O)/C1=C/c1ccc(Cl)cc1,> 100 µM,> 100 µM,> 100 µM,> 100 µM,> 100 µM,> 100 µM,> 100 µM,> 100 µM,> 100 µM,> 100 µM,,,,,,,,,,
[Cl][Hg][c]1ccc(Cl)s1,3.33 µM,13.4 µM,20.2 µM,21.8 µM,6.29 µM,60.9 µM,17.6 µM,0.325 µM,3.37 µM,4.66 µM,1.78 µM,3.15 µM,5.72 µM,4.29 µM,2.1 µM,18.7 µM,4.65 µM,0.114 µM,0.908 µM,1.14 µM
Cc1nc(-c2nc(-c3ccc(OC(F)(F)F)cc3)no2)nn1Cc1cccc(N2CCC(S(C)(=O)=O)CC2)c1,> 65 µM,95.4 µM,48.6 µM,> 100 µM,> 49.5 µM,> 100 µM,> 86.5 µM,> 100 µM,> 100 µM,> 100 µM,> 26.7 µM,8.75 µM,1.6 µM,> 33.1 µM,,4.62 µM,> 35.1 µM,> 100 µM,0.0134 µM,> 25 µM
C=C1C(=O)O[C@H]2C[C@@H]1CC/C(C)=C/CC/C(C)=C/CC[C@@]2(C)O,> 100 µM,> 100 µM,> 100 µM,> 100 µM,45.7 µM,> 100 µM,> 100 µM,79 µM,> 100 µM,> 100 µM,55.3 µM,> 100 µM,> 100 µM,> 100 µM,20.7 µM,> 100 µM,46.7 µM,27.4 µM,> 100 µM,34.6 µM
O=C([O][Hg][CH2]C1OCCOC1[CH2][Hg][O]C(=O)c1ccccc1)c1ccccc1 (configuration not stated),3.4 µM,30.8 µM,35.5 µM,,7.41 µM,32.8 µM,,0.23 µM,3.59 µM,10.6 µM,1.95 µM,16.5 µM,18.3 µM,,2.67 µM,16.7 µM,5.05 µM,0.0642 µM,1.82 µM,5.77 µM
CC(C)(C)[Si](C)(C)OC1[C@@H](O[Si](C)(C)C(C)(C)C)[C@@H](CNC(=O)NC(=O)CF)O[C@H]1n1cnc2c(NC(=O)Nc3ccccc3)ncnc21 (some centres not stated),38.6 µM,,,> 50 µM,> 50 µM,> 50 µM,> 50 µM,> 50 µM,> 50 µM,25.9 µM,8.67 µM,,,9.31 µM,17.4 µM,6.92 µM,30.9 µM,> 50 µM,4.7 µM,7.35 µM
Cn1cc(C2=C(c3c4n(c5ccccc35)CCC(CN)C4)C(=O)NC2=O)c2ccccc21 (configuration not stated),7.02 µM,9.26 µM,,6.62 µM,8.77 µM,7.83 µM,7.92 µM,7.46 µM,7.49 µM,5.95 µM,3.2 µM,3.96 µM,,3.12 µM,4.13 µM,3.05 µM,4.15 µM,3.84 µM,3.17 µM,2.67 µM
COc1ccc(Sc2nc3cc(N)cc(N)c3nc2-c2ccccc2)cc1,,> 100 µM,,> 100 µM,> 100 µM,> 100 µM,,> 100 µM,> 100 µM,,,> 100 µM,,> 100 µM,4.25 µM,42.4 µM,,3.2 µM,> 100 µM,
COc1ccc2c(c1)oc(=O)c1cc(OC)ccc12,,> 100 µM,> 100 µM,> 100 µM,,> 100 µM,> 100 µM,> 100 µM,> 100 µM,> 100 µM,,> 100 µM,8.99 µM,> 100 µM,,> 100 µM,> 100 µM,> 100 µM,> 100 µM,> 100 µM
CC(=O)Nc1c(I)c(NC(C)=O)c(I)c(C(=O)O)c1I,> 100 µM,,> 100 µM,> 100 µM,> 100 µM,> 100 µM,> 100 µM,> 100 µM,> 100 µM,> 100 µM,> 100 µM,,> 100 µM,> 100 µM,> 100 µM,> 100 µM,> 100 µM,> 100 µM,> 100 µM,> 100 µM
N#Cc1c(N)n2c(nc1=Nc1ccc(Cl)cc1)sc1cc(Cl)ccc12,> 100 µM,> 100 µM,> 100 µM,30.1 µM,> 100 µM,,,,> 100 µM,> 100 µM,9 µM,> 100 µM,10.2 µM,4.6 µM,,,2.01 µM,3.74 µM,> 100 µM,5.67 µM and 3.77 µM
Cc1ccc2c(c1)c(Sc1ccc(C(=O)NO)cc1)c1n2CN(C)CC1,8.63 µM,7.27 µM,,3.83 µM,6.4 µM,5.81 µM,4.21 µM,2.61 µM,5.45 µM,8.38 µM,2.68 µM,2.13 µM,,1.61 µM,2.35 µM,2.27 µM,1.88 µM,1.16 µM,1.53 µM,2.53 µM
CC/C(=C(/c1ccc(O)cc1)c1ccc(OCCN)cc1)c1ccccc1,6.76 µM,19 µM,,10.7 µM,5.36 µM,8.81 µM,8.55 µM,9.36 µM,5.94 µM,5.78 µM,2.4 µM,4.95 µM,,3.3 µM,2.18 µM,2.97 µM,3.6 µM,4.26 µM,1.67 µM,2.49 µM
